Laboratory results reported in patent US20250318532A1, “ASCAROSIDE COMBINATIONS” (Ascribe Bioscience Inc., priority 2022, published 2025).

System: Asian Soybean Rust (ASR)
Assay: Soybean field trial in Brazil, ascaroside with Chlorothalonil and APROACH POWER
Type: in vivo
Details: ascaroside alone, 250 mg/ac, foliar spray, relative to untreated controls

CC1OC(O[C@H](C)CCCCCCCCC(=O)O)C(O)CC1O (stereo partly shown) [ascr #18]
protection against Asian Soybean Rust: 20-40%
